Values after ≈ are worked out from the molar mass of the structure shown.
Tests used:
[1] = test system: Plasmodium falciparum; experiment: Antiplasmodial activity against Plasmodium falciparum 3D7 infected in RBC assessed as reduction in parasitemia incubated for 72 hrs by SYBR green dye-based assay; type: functional, organism-based; details: Plasmodium falciparum, 3D7, Erythrocyte, 72 h
[2] = Protein binding in rat plasma assessed as bound fraction by LC-MS analysis based ultracentrifugation assay; type: ADME, cell-free; details: read-out: PPB (converted)
[3] = Protein binding in mouse plasma assessed as bound fraction by LC-MS analysis based ultracentrifugation assay; type: ADME, cell-free; details: read-out: PPB (converted)
[4] = Intrinsic clearance in human pooled liver microsomes assessed per mg protein at 1 uM by LC-MS analysis; type: ADME, Microsome; details: pooled human liver microsomes
[5] = Intrinsic clearance in rat liver microsomes assessed per mg protein at 1 uM by LC-MS analysis; type: ADME, Microsome; details: rat liver microsomes, read-out: CLH
[6] = Intrinsic clearance in mouse liver microsomes at 1 uM by LC-MS analysis; type: ADME, Microsome
[7] = Solubility of compound in 0.1 N HCl measured after 5 to 6 hrs by HPLC-UV based analysis; type: physicochemical; details: buffer; time 5-6 hrs
[8] = test system: Plasmodium falciparum; experiment: Antiplasmodial activity against Plasmodium falciparum 3D7 infected in po dosed NSG mouse assessed as reduction in parasitemia administered twice daily for 4 consecutive days starting from day 3 post-infection and measured 24 hrs post last dose by flow cytometric analysis; type: functional; details: 3D7, po, 96 h, time 4 day
[9] = test system: Plasmodium falciparum; experiment: Antiplasmodial activity against Plasmodium falciparum 3D7 infected in po dosed NSG mouse assessed as blood AUC level require to show 90% reduction in parasitemia administered once daily for 4 consecutive days starting from day 3 post-infection and measured 24 hrs post last dose by flow cytometric analysis; type: functional, organism-based; details: time 4.0 day
[10] = Unbound Cmax in Sprague-Dawley rat at 18.8 mg/kg, po by LC-MS analysis; type: ADME, organism-based; details: in vivo
[11] = Unbound AUC (0 to infinity) in Sprague-Dawley rat at 18.8 mg/kg, po by LC-MS analysis; type: ADME, organism-based; details: in vivo
[12] = AUC (0 to infinity) in Sprague-Dawley rat at […], iv by LC-MS analysis; type: ADME, organism-based; parameters: time infinity, route intravenous, dose 2.6 mg/kg; details: in vivo
[13] = Unbound AUC (0 to infinity) in Sprague-Dawley rat at […], iv by LC-MS analysis; type: ADME, organism-based; details: in vivo, dose 2.6 mg/kg
[14] = Unbound Clearance in Sprague-Dawley rat at […], iv by LC-MS analysis; type: ADME, organism-based; details: in vivo, dose 2.6 mg/kg
[15] = Unbound volume of distribution at steady state in Sprague-Dawley rat at […], iv by LC-MS analysis; type: ADME, organism-based; details: in vivo, dose 2.6 mg/kg
[16] = Unbound Cmax in Swiss mouse at 10 mg/kg, po by LC-MS analysis; type: ADME, organism-based; details: in vivo
[17] = Unbound AUC (0 to infinity) in Swiss mouse at 10 mg/kg, po by LC-MS analysis; type: ADME, organism-based; details: in vivo
[18] = Protein binding in Swiss mouse plasma at 10 mg/kg, po administered as single dose via gavage measured over 24 hrs by LC-MS analysis; type: ADME, organism-based; details: read-out: PPB (converted)
[19] = Protein binding in Sprague-Dawley rat plasma at […], iv administered as infusion for 10 mins by LC-MS analysis; type: ADME, organism-based; details: dose 2.6 mg/kg, read-out: PPB (converted)

Cc1cc(Nc2ccc(S(F)(F)(F)(F)F)cc2)n2nc(C(C)(F)F)nc2n1 [DSM-265]
EC50 [1]: 4.3 nM | fraction unbound [2]: 0.023 | fraction unbound [3]: 0.003 | microsomal CLint at 1 µM [4]: 4.3 µL/min/mg | microsomal CLint at 1 µM [5]: 1.8 µL/min/mg | intrinsic clearance [6]: 2.8 µL/min | solubility [7]: 6.8 µg/mL (≈ 16.4 µM) | ED90 [8]: 3 mg/kg | AUCED90 [9]: 30.8 µM.hr/day | fCmax [10]: 0.09 µM | fAUC [11]: 2800 nM·h | AUC(0-inf) [12]: 17400 nM·h | fAUC [13]: 400 nM·h | CL free [14]: 15.8 L/h/kg | fVdss [15]: 257 L/kg | fCmax [16]: 0.01 µM | fAUC [17]: 70 nM·h | fraction unbound at 24 h [18]: 0.003 | fraction unbound at 10 min [19]: 0.023

Source: ChEMBL document CHEMBL4706474, “Tetrahydro-2-naphthyl and 2-Indanyl Triazolopyrimidines Targeting Plasmodium falciparum Dihydroorotate Dehydrogenase Display Potent and Selective Antimalarial Activity” (J Med Chem, 2016)
